Experimental findings from patent publication US20020058288A1, “TOXOPLASMA GONDII GLYCOCONJUGATES” (priority 1995, published 2002) are described below.

The assay relates to Wistaria floribunda agglutinin. Put plainly: Lectin affinity chromatography on W. floribunda agglutinin agarose. Format: binding. The note with it: elution with 100 mM N-acetylgalactosamine as specific inhibitor, FIG. 7. As to the method:
Lectin affinity chromatography was performed as previously described (Nakano et al., Arch. Biochem. Biophys. 311, 117-126, 1994). Briefly, radiolabeled core glycans derived from glycolipid II, III (core glycan A and B respectively) and rat brain THY1 membrane anchor were applied to a 1 ml column of W. floribunda agglutinin agarose (5 mg lectin/ml gel) equilibrated in 50 mM Tris-HCl, pH 7.4 containing 0.02% sodium azide. Elution was accomplished using 25 ml of equilbration buffer followed by 15 ml of the same buffer containing 100 mM N-acetylgalactosamine as specific inhibitor.
FIG. 7: Analysis of core glycans derived from TLC purified glycolipids labelled with ^3H glucosamine on Wisaria floribunda agglutinin agarose: Core glycan A (A), core glycan (B), Man4GalNAcAHM from rat brain Thy1 anchor (C), arrow indicates buffer change

Turning to Man3(GalNAc)AHM [Core glycan A], the “Affinity towards W. floribunda agglutinin column” value is given as “bound to the column”.
